Patent US11459313B2, “Aziridinyl and amino dimeric naphthoquinone compounds and use for acute myeloid leukemia” (University of Maryland, Baltimore, priority 2016, dated 2022)
“Also recorded” adds a separate entry of the source. Where two headings read alike, the source gives them in different places.

Assays:
[1] = Safety and tolerability in NSG mice; assay type: in vivo; conditions: female NSG mice; 5, 10 or 15 mg/kg intraperitoneal daily for 5 days, one week observation
Method: Considering the significant antineoplastic, activity of Compound 101, the safety and tolerability of this agent was tested in vivo on female NSG nice. Groups of three female NOD.Cg-Prkdc^scid Il2rg^tm1Wjl/SzJ (NSG) mice were tested with 5, 10 or 15 mg/kg of Compound 101 delivered by intraperitoneal injection daily for 5 consecutive days, and the mice monitored for one additional week. […] An asterisk (*) denotes days of dosing.

[2] = tested on: MOLM-14 cells; assay: Clonogenic assay, MOLM-14; assay type: cell-based, human; conditions: 24 hours exposure, then methylcellulose; p<0.05 at 1, 10 and 100 μM
Method: MOLM-14 and THP-1 were treated with either DMSO control or mono-aziridine dimeric naphthoquinone or bis-aziridinyl dimeric naphthoquinone compounds at concentrations of 0.1, 1, 10 and 100 μM (micromolar) for 24 hours. The cells then were washed with growth medium and resuspended in growth medium and methylcellulose with or without DMSO or the treatment compounds. After 7 or 13 days (MOLM-14 or THP-1, respectively), treatment was terminated by addition of 1.0 mg/mL, iodonitrotetrazolium chloride (INT; Sigma Aldrich®) and read 24 hours later with an automated colony counter (Symbiosis®). Data were analyzed and graphed using GraphPad Prism® software.
Next, the effect of bis-aziridinyl-dimeric naphthoquinone Compound 101 on AML cell survival and viability. […] For colony formation assays, cell lines were treated with the indicated doses of aziridinyl dimeric naphthoquinone Compound 101 for 24 hours, and subsequently washed and plated in methylcellulose to observe clonogenic potential after 7-10 days. See above for additional comments on the methods.
Clonogenic inhibition was […] when bis-aziridinyl dimeric naphthoquinone was removed from cells after 24 hours of treatment. The bis-aziridinyl dimeric naphthoquinone was able to reduce clonogenicity with just a 24-hour exposure prior to plating.

[3] = tested on: THP-1 cells; assay: Cell survival assay (trypan blue exclusion), THP-1; assay type: cell-based, human; conditions: 72 hours; at 1, 10 and 100 μM
Method: (§1) MOLM-.14 and THP-1 cells were seeded in 96-well plates and treated with DMSO, mono- and bis-aziridinyl dimeric naphthoquinone compounds, or dimethylamine dimeric naphthoquinone Compound 114 as previously described. Cells were incubated for 72 hours, and then counted using trypan blue exclusion on the Countess® automated cell counter (Life Technologies®). Cell counts were performed in duplicates, and the averages were graphed using GraphPad Prism® software (GraphPad®).
(§2) Cell survival was determined using trypan blue exclusion, in which cells are plated and the following day treated similarly to the proliferation assay. The bis-aziridinyl dimeric naphthoquinone Compound 101 was effective in decreasing cell number at increasing concentrations of compound in MOLM-14 and THP1 cells.

[4] = tested on: MV4-11 cells; assay: WST-1 cell proliferation assay, MV4-11; assay type: cell-based, human; conditions: Homo sapiens, MV4-11, Example 5 text; read-out: IC50 MV4-11
Method: (§3) Cell lines were seeded into 96-well plates the afternoon prior to treatment. Approximately 18 hours later, bis and mono-aziridine dimeric naphthoquinone compounds were semi-serially diluted in dimethyl sulfoxide (DMSO) and then growth medium, and added to cells. Plates were incubated for 72 hours prior to addition of WST-1 (Promega®). Plates were read after 4 additional hours of incubation at 37° C. using a Bio-Tek Synergy® HT plate reader (Bio-Tek®). Data were analyzed and graphed using GraphPad Prism® Software (Graph Pad®).
(§4) Primary AML cells from patients and cell lines were seeded into 96-well plates the afternoon prior to treatment. Eighteen hours later, amino-dimeric naphthoquinone Compounds 106, 101, and 114 were semi-serially diluted in dimethyl sulfoxide (DMSO) and then growth medium, and added to the cells. In order to quantitate proliferation of metabolically active cells, plates were incubated for 72 hours for cell lines and 48 hours for primary AML cells prior to addition of water-soluble tetrazolium (WST-1) (Clontech®). Plates were read after four additional hours of incubation at 37° C. using a Bio-Tek Synergy® HT plate reader (Bio-Tele®). Data were analyzed and graphed using GraphPad Prism® Software (GraphPad®). IC50 was defined as the concentration that decreases viable cell numbers by 50%. IC50 values were calculated as mean±standard deviation from at least two independent experiments. If availability of primary blasts was limited, the IC50 was obtained from a single experiment.

[5] = tested on: normal hematopoietic bone marrow cells; assay: WST-1 cell proliferation assay, normal bone marrow cells; assay type: cell-based; conditions: Homo sapiens
Method: Bone marrow aspirate or whole blood samples were received in sodium ethylenediaminetetraacetate (EDTA) tubes, and diluted 1:1 with phosphate-buffered saline (PBS). Cells were isolated from diluted samples by density separation in lymphocyte separation medium (Corning Cellgro®) with centrifugation at 400×g for 30 minutes with no brake. Cells from healthy donor whole blood were isolated in similar manner. N01mal bone marrow mononuclear cells (NBM) were purchased from Lonza®. Viable cell numbers were calculated using trypan blue exclusion. All primary AML cells and cell lines were grown in 37° C. with 5% CO2 atmosphere in Roswell Park Memorial institute (RPMI) 1640 medium (Life Technologies®) supplemented with heat-inactivated 10% (v/v) fetal bovine serum. […]
Primary AML cells from patients and cell lines were seeded into 96-well plates the afternoon prior to treatment. […] In order to quantitate proliferation of metabolically active cells, plates were incubated for 72 hours for cell lines and 48 hours for primary AML cells prior to addition of water-soluble tetrazolium (WST-1) (Clontech®). Plates were read after four additional hours of incubation at 37° C. using a Bio-Tek Synergy® HT plate reader (Bio-Tele®). Data were analyzed and graphed using GraphPad Prism® Software (GraphPad®). […] IC50 values were calculated as mean±standard deviation from at least two independent experiments. […]

[6] = tested on: THP-1 cells; assay: WST-1 cell proliferation assay, THP-1; assay type: cell-based; conditions: Homo sapiens, THP-1
Method: as §3, §4

[7] = tested on: MOLM-14 cells; assay: Cell survival assay (trypan blue exclusion), MOLM-14; assay type: cell-based, human; conditions: 72 hours; at 0.1, 1, 10 and 100 μM
Method: as §1, §2

[8] = tested on: MOLM-14 cells; assay: WST-1 cell proliferation assay, MOLM-14; assay type: cell-based, human; conditions: Homo sapiens
Method: as §3, §4
To investigate antiproliferative activity of amino-dimeric naphthoquinones against AML cells, an MTT-like cell proliferation assay was performed in the AML cell lines using WST-1 (water soluble tetrazolium salts; Promega®). MOLM-14 and AML-D cells, as well as normal hematopoietic bone marrow cells from a healthy donor, were exposed to a range of concentrations of Compound 101. Human leukemia cells were cultured in the presence of the compound for 72 hours (48 hours for primary cells) and WST-1 reagent was then added. The cells then were monitored for cell growth or the number of cells proliferating and the IC50 calculated. The IC50 is the concentration at which 50% of the cells are not proliferating compared to control cells treated with vehicle. See FIG. 2A, FIG. 2B, and FIG. 2C for representative graphs of these IC50 determinations.

Compound: O=C1C(C2=C(N3CC3)C(=O)c3ccccc3C2=O)=C(N2CC2)C(=O)c2ccccc21 [Compound 101, 3,3′-di(aziridin-1-yl)-[2,2′-binaphthalene]-1,1 4,4′-tetrone]
- mean body weight loss [1]: ≤ 10%
- tolerability [1]: tolerated the compound well with no weight loss observed
- clonogenic activity (colony formation), MOLM-14 [2]: marked reduction in clonogenic activity; also recorded: inhibits clonogenicity
- viable cells, THP-1 [3]: statistically significant (p<0.05) reduction in viable cells
- IC50 [4]: 1050 ± 50 nM
- IC50 [5]: 3370 ± 1270 nM
- IC50 ([6]; Example 5, read-out: IC50 THP-1): 650 ± 300 nM
- IC50 ([6]; Table 5, read-out: IC50 THP1 (n)): 1600 ± 1000 nM
- viable cells, MOLM-14 [7]: statistically significant (p<0.05) reduction in viable cells
- IC50 ([8]; MOLM-14, 72 h, 72 hours, WST-1, read-out: IC50 against MOLM-14 cells): 150 to 200 nM
- IC50 ([8]; MOLM-14, Example 5 text, read-out: IC50 MOLM-14): 180 ± 60 nM
- IC50 ([8]; MOLM-14, Table 5, read-out: IC50 MOLM-14 (n)): 250 ± 200 nM
